In patent US20260062441A1, “TUMOR-SEEKING GLUCOSE-DENDRONS FOR THE DELIVERY OF CHEMOTHERAPEUTICS AND IMAGING AGENT TO CANCER CELLS” (THE BOARD OF TRUSTEES OF THE UNIVERSITY OF ILLINOIS, priority 2022, published 2026):

Experiments:
[1] = Log D7.4 measurements (octanol/PBS partition); assay type: physicochemical; settings: octanol/PBS pH 7.4
Procedure: Log D7.4 Measurements. Log D measurements were conducted in technical triplicate and 5 experimental replicates. Samples at a known concentration (n=3) were added to Eppendorf tubes containing PBS (pH=7.4, 500 μL) and octanol (500 μL). The Eppendorf tubes were each vortexed for 30 seconds and subsequently subjected to microcentrifuge for 1 minute. Then the PBS and octanol layers were pipetted into a clear 96-well plate. The absorbance values were taken using a SpectraMax M2 plate reader. The log of (dye absorbance in octanol/dye absorbance in PBS) was calculated and averaged across different concentrations to generate the log D7.4.

[2] = Photophysical characterization; assay type: physicochemical; settings: for ε / λabs / λem: 3:7 v/v MeCN:PBS (pH=7.4); for PABF: PA Brightness Factor; for Φ: relative to dimethoxy aza-BODIPY
Procedure: Photophysical Characterization. Extinction coefficients and fluorescence quantum yields were acquired in experimental triplicates. Extinction coefficients were measured by performing serial dilutions of the compounds in 3:7 v/v MeCN:PBS (pH=7.4) within the linear range (absorbance values between 0.05-1.5). Reported fluorescence quantum yields are relative quantum yields compared to dimethoxy aza-BODIPY (Φ=0.36, chloroform). The compounds were titrated into acetonitrile or 3:7 MeCN/PBS (pH=7.4) such that their absorbance values were kept below 0.1 to prevent secondary absorbance events. The refractive index of 3:7 v/v MeCN:PBS (pH=7.4) was measured to be 1.343. Characterization of mvpCu and t-mvpCu were conducted in 1:1 v/v DMF:HEPES (50 mM, pH=7.4).

[3] = chloroform; cited from earlier work
A549 cells = experiment: MTT cytotoxicity assay; assay type: cell-based, human; settings: A549, up to 15 μM, 6-hour incubation
Procedure: (§1) MTT Cytotoxicity Assay. A 96-well plate was seeded with 30,000 cells per well and incubated at 37° C. with 5% CO2 for 24-48 hours (˜70% confluent). The media was removed and replaced with fresh serum-free medium (200 μL) containing vehicle control (DMSO) or dye (4, 6, 10, or 15 μM). After 4 hours, the media was removed and replaced with a 20:1 mixture of PBS and (3-(4,5-dimethylthiazol-2-yl)-2,5-diphenyl-tetrazolium bromide (MTT, 5 mg/mL stock in PBS). The cells were incubated for 2 hours under the same conditions, and then the media was removed, replaced with DMSO (200 μL), and the absorbance of each well was recorded at 555 nm on a SpectraMax M2 plate reader. Percent viability was calculated relative to the vehicle control (n=8).

[4] = tested on: 4T1 orthotopic breast cancer; experiment: In vivo fluorescence imaging of tumor-bearing mice; design: species or system BALB/c mice; settings: for fluorescence signal enhancement of the tumor site relative to initial background scan: 1.2 mg/kg retroorbital
Procedure: In Vivo Imaging. Before all imaging, hair on the bottom half of mice were removed via an electric razor and depilatory cream. In both FL and PA imaging, a background scan was taken of each mouse before injection. For PA imaging experiments, mice were allowed to equilibrate in the water tank for 10 min, and all scans were collected on H2O mode at 34° C.
Fluorescence Imaging with mvGlu-AB2 and mvGlu-AB3. 4T1 cells were trypsinized, neutralized with growth media, and counted on a Countess II FL Cell Counter (Invitrogen, Thermo Fisher Scientific). Cells were spun down, media was aspirated, and a solution was made in 1:1 serum-free RPMI media to VitroGel® hydrogel. Mice were injected in the mammary fat pad with 300,000 cells (50 μL) of the cell solution. Tumors grew for around 1.5-2 weeks and the mice were imaged once tumors reached 100 mm^3. Dyes (1.2 mg/kg) were dissolved in 0.9% saline (5% DMSO) and injected retroorbitally. Mice were imaged using the CRi Maestro In-Vivo Fluorescence Imaging System at timepoints=0, 6, 8, 12, 16, 24, and 48 hours. Excitation occurred at 680 nm, and light was collected from 690-850 nm (n=3).

[5] = tested on: 4T1 orthotopic breast cancer; experiment: In vivo PA imaging with mvGlu-AB2; design: species or system BALB/c mice; settings: 6 hr, spectral unmixing
Procedure: In Vivo Imaging. Before all imaging, hair on the bottom half of mice were removed via an electric razor and depilatory cream. In both FL and PA imaging, a background scan was taken of each mouse before injection. For PA imaging experiments, mice were allowed to equilibrate in the water tank for 10 min, and all scans were collected on H2O mode at 34° C. PA Imaging with mvGlu-AB2. 4T1 cells were trypsinized, neutralized with growth media, and counted on a Countess II FL Cell Counter (Invitrogen, Thermo Fisher Scientific). Cells were spun down, media was aspirated, and a solution was made in 1:1 serum-free RPMI media to Geltrex™ LDEV-Free, hESC-Qualified, Reduced Growth Factor Basement Membrane Matrix. Mice were injected in the mammary fat pad with 250,000 cells (50 μL) of the cell solution. Tumors grew for around 1.5-2 weeks and the mice were imaged once tumors reached 100 mm^3. mvGluAB-2 was reconstituted in 0.9% saline (5% DMSO) and injected retroorbitally. PA images were taken at timepoints=0 and 6 hours in 5 nm increments from 660-700 nm. Images were spectrally unmixed from hemoglobin, deoxyhemoglobin, and melanin (n=4).

[6] = tested on: A549 human lung cancer cells; experiment: Cellular uptake studies (epifluorescence imaging); assay type: cell-based
Procedure: Cell Culture. A549 lung cancer cells and 4T1 murine breast cancer cells were acquired from ATCC. A549 cells were cultured in Ham's F-12K Medium containing 10% FBS and 1% penicillin streptomycin solution, and 4T1 cells were cultured in RPMI-1640 Medium containing 10% FBS and 1% penicillin streptomycin solution. Cells were incubated at 37° C. with 5% CO2. Experiments were performed in 8-well plates (Nuc Lab-Tek Chambered Coverglass, Thermo Scientific) or 96-well plates (Nuclon Delta Surface Flat Bottom, Thermo Scientific).
Cellular Uptake Studies. 8-well borosilicate plates were prepared with poly-L-Lysine coating and seeded with 50,000 cells per well and incubated at 37° C. with 5% CO2 for 24 hours (˜60% confluent). Serum-free media containing mvGlu-AB2 (2 μM), 15 mM Glucose, mvGlu-AB2 (2 μM)+15 mM Glucose, L-mvGlu-AB2 (2 μM), dimethoxy aza-BODIPY (2 μM), or vehicle (DMSO) were prepared. Competition glucose wells were preincubated with 15 mM glucose in serum-free media for 30 minutes. […] The media was removed and replaced with PBS. Cells were imaged using an EVOS FL epifluorescence microscope with a Cy7 filter cube. Four experimental replicates and 3 technical replicates were taken.
Quantification of Cell Imaging Data. In FIJI (ImageJ), ROIs were drawn around representative cells and the integrated density (area×mean gray value) was measured. The total cell fluorescence was calculated by subtracting the integrated density of the cell by the background integrated fluorescence. Technical replicates (n=3) in each well were quantified as the average of 3 cells. Values are reported as the average (+SD) of […] (n=4). Colocalization Studies with mvGlu-AB2. 8-well borosilicate plates were prepared with poly-L-Lysine coating and seeded with 45,000 cells per well and incubated at 37° C. with 5% CO2 for 24 hours (˜60% confluent). Serum-free media containing mvGlu-AB2 (1 μM) was prepared. Cells were incubated for 30 minutes with mvGlu-AB2. The cells were washed 1× with PBS and incubated with the relevant organelle tracker according to the manufacturer recommended protocol. Following incubation with tracker, the cells were washed 1× with PBS. Cells were imaged using an EVOS FL epifluorescence microscope. Lysotracker® Green and Mitotracker® Green were imaged using a GFP filter cube, DAPI was imaged using a DAPI filter cube, and mvGlu-AB2 was image with a Cy7 filter cube. Four experimental replicates and 3 technical replicates were taken.

4T1 cells = experiment: MTT cytotoxicity assay; assay type: cell-based, murine; settings: 4T1, up to 15 μM, 6-hour incubation
Procedure: as §1

logD7.4 ([1]; Table 2)	logD7.4 [1]	extinction coefficient ε [2] [M⁻¹ cm⁻¹]	ε ([2]; Table 1b) [M/cm]	λabs ([2]; Table 1b) [nm]	λem ([2]; Table 1b) [nm]	PABF ([2]; Table 1b)	Φ ([2]; Table 1b)	ε ([2]; Table 2) [M/cm]	λabs ([2]; Table 2) [nm]	λem ([2]; Table 2) [nm]	PABF ([2]; Table 2)	Φ ([2]; Table 2)	Structure (SMILES)	other results
2.51 ± 0.92	2.51±0.92	3000	3400	689	710	0.34 ×10^4	0.014	3400	689	710	0.34 × 10^4	0.014	COc1ccc(C2=[N+]3C(=Nc4c(-c5ccccc5)cc(-c5ccc(OC)cc5)n4[B-]3(F)F)C(c3ccccc3)=C2)cc1 [AB-OMe2, reference compound]	fluorescence quantum yield Φ of reference standard [3]: 0.36
−1.12 ± 0.16	−1.12±0.16	26000	26000	679	710	2.1 ×10^4	0.19	26000	679	710	2.1 × 10^4	0.19	CO[B-]1(OC)n2c(-c3ccc(OCc4cn(C(COC5OC(CO)C(O)C(O)C5O)COC5OC(CO)C(O)C(O)C5O)nn4)cc3)cc(-c3ccccc3)c2N=C2C(c3ccccc3)=CC(c3ccc(OCc4cn(C(COC5OC(CO)C(O)C(O)C5O)COC5OC(CO)C(O)C(O)C5O)nn4)cc3)=[N+]21 (centres unmarked) [mvGlu-AB2]	cell viability (MTT) (A549 cells): no loss in cell viability; fluorescence signal enhancement of the tumor site relative to initial background scan ([4]; after 8 hours): ~2 fold; PA signal difference of tumor prior to and after injection [5]: 4.1 fold; low dye concentration at which a clear fluorescent signature was apparent ([6]; A549): 50 nM; brighter than cells treated with l-mvGlu isomer ([6]; A549, 2 μM): 3 fold; signal intensity higher when glucose was absent ([6]; A549, dye 2 μM, vs pre-incubation with glucose 15 mM): 2 fold; fluorescence signal intensity brighter than AB-OMe2-treated cells ([6]; A549, imaged after 20 minutes): > 1000 fold; ε higher than AB-OMe2 ([2]; ratio to AB-OMe2): 8.7 fold; cell viability (MTT) (4T1 cells): no loss in cell viability
−0.71 ± 0.11	−0.71±0.11		24000	681	712	1.7 ×10^4	0.31	24000	681	712	1.7 × 10^4	0.31	COc1ccc(C2=[N+]3C(=Nc4c(-c5ccc(OCc6cn(C(COC7OC(CO)C(O)C(O)C7O)COC7OC(CO)C(O)C(O)C7O)nn6)cc5)cc(-c5ccc(OC)cc5)n4[B-]3(OC)OC)C(c3ccc(OCc4cn(C(COC5OC(CO)C(O)C(O)C5O)COC5OC(CO)C(O)C(O)C5O)nn4)cc3)=C2)cc1 (centres unmarked) [mvGlu-AB3]	in vivo imaging results compared with mvGlu-AB2 ([4]; FIGS. 17-18): comparable; fluorescence signal enhancement of the tumor site relative to initial background scan ([4]; after 12 hours): ~2 fold

Structure (SMILES)	logD7.4 ([1]; Table 2)	logD7.4 [1]	extinction coefficient ε [2] [M⁻¹ cm⁻¹]	ε ([2]; Table 1b) [M/cm]	λabs ([2]; Table 1b) [nm]	λem ([2]; Table 1b) [nm]	PABF ([2]; Table 1b)	Φ ([2]; Table 1b)	ε ([2]; Table 2) [M/cm]	λabs ([2]; Table 2) [nm]	λem ([2]; Table 2) [nm]	PABF ([2]; Table 2)	Φ ([2]; Table 2)	other results
COc1ccc(-c2cc(-c3ccccc3)c3n2[B-](OC)(OC)[N+]2=C(c4ccc(OCc5cn(C(COC6OC(CO)C(O)C(O)C6O)COC6OC(CO)C(O)C(O)C6O)nn5)cc4)C=C(c4ccccc4)C2=N3)cc1 (centres unmarked) [mvGlu-AB1]	0.75 ± 0.02	0.75±0.02		18000	675	710	1.6 ×10^4	0.10	18000	675	710	1.6 × 10^4	0.10	
